We go through 25 compounds from patent publication US20190031667A1, “PESTICIDALLY ACTIVE HETEROCYCLIC DERIVATIVES WITH SULPHUR CONTAINING SUBSTITUENTS” (SYNGENTA PARTICIPATIONS AG, priority 2016, published 2019).

Structures are written as SMILES. A value given as a limit tells only on which side of the number the result lay.

Series [1] relates to Spodoptera littoralis (Egyptian cotton leaf worm). In words: Example B1: Activity against Spodoptera littoralis, sprayed cotton leaf discs. Type of series: in vivo. The note with it: foliar, 72 h, application rate 200 ppm, L1 larvae, 3 days after infestation. As to the method: Example B1: Activity against Spodoptera littoralis (Egyptian cotton leaf worm) Cotton leaf discs were placed onto agar in 24-well microtiter plates and sprayed with aqueous test solutions prepared from 10′000 ppm DMSO stock solutions. After drying the leaf discs were infested with five L1 larvae. The samples were assessed for mortality, anti-feeding effect, and growth inhibition in comparison to untreated samples 3 days after infestation. Control of Spodoptera littoralis by a test sample is given when at least one of the categories mortality, anti-feedant effect, and growth inhibition is higher than the untreated sample.

Series [2] concerns Diabrotica Balteata (Corn Root Worm). In words: Example B4: Activity against Diabrotica balteata, sprayed maize sprouts. Type of series: in vivo. The note with it: 96 h, application rate 200 ppm, L2 larvae, 4 days after infestation, read-out: effect in at least one of the two categories (mortality or growth inhibition). The protocol: Example B4: Activity Against Diabrotica Balteata (Corn Root Worm)
Maize sprouts, placed onto an agar layer in 24-well microtiter plates were treated with aqueous test solutions prepared from 10′000 ppm DMSO stock solutions by spraying. After drying, the plates were infested with L2 larvae (6 to 10 per well). The samples were assessed for mortality and growth inhibition in comparison to untreated samples 4 days after infestation.

For series [3], the system named is Euschistus heros (Neotropical Brown Stink Bug). The series can be described thus: Example B8: Activity against Euschistus heros, sprayed soybean leaves. Type of series: in vivo. The note with it: 120 h, application rate 200 ppm, N2 nymphs, 5 days after infestation, read-out: effect in at least one of the two categories (mortality or growth inhibition). The protocol:
Example B8: Activity Against Euschistus heros (Neotropical Brown Stink Bug)
Soybean leaves on agar in 24-well microtiter plates were sprayed with aqueous test solutions prepared from 10′000 ppm DMSO stock solutions. After drying the leaves were infested with N2 nymphs. The samples were assessed for mortality and growth inhibition in comparison to untreated samples 5 days after infestation.

In series [4] the test system is Plutella xylostella (Diamond Back Moth). In words: Example B3: Activity against Plutella xylostella, artificial diet. Type of series: in vivo. The note with it: 120 h, application rate 200 ppm, L2 larvae, 5 days after infestation, read-out: effect in at least one of the two categories (mortality or growth inhibition). As to the method:
Example B3: Activity Against Plutella xylostella (Diamond Back Moth)
24-well microtiter plates with artificial diet were treated with aqueous test solutions prepared from 10′000 ppm DMSO stock solutions by pipetting. After drying, the plates were infested with L2 larvae (10 to 15 per well). The samples were assessed for mortality and growth inhibition in comparison to untreated samples 5 days after infestation.

The test system of series [5] is Myzus persicae (Green Peach Aphid). The series can be described thus: Example B5: Activity against Myzus persicae, sprayed sunflower leaf discs. Type of series: in vivo. The note with it: foliar, 144 h, application rate 200 ppm, mixed-age aphids, 6 days after infestation. The protocol: Example B5: Activity Against Myzus persicae (Green Peach Aphid)
Sunflower leaf discs were placed onto agar in a 24-well microtiter plate and sprayed with aqueous test solutions prepared from 10′000 ppm DMSO stock solutions. After drying, the leaf discs were infested with an aphid population of mixed ages. The samples were assessed for mortality 6 days after infestation.

Series [6] has as its system Spodoptera littoralis (Egyptian cotton leaf worm). In words: Example B2: Activity against Spodoptera littoralis, systemic via lettuce roots in agar. Type of series: in vivo. The note with it: 144 h, test rate 12.5 ppm, uptake by lettuce roots from agar, 6 days after infestation, read-out: effect in at least one of the three categories (mortality, anti-feeding, or growth inhibition). An excerpt: Example B2: Activity against Spodoptera littoralis (Egyptian cotton leaf worm) Test compounds were applied by pipette from 10′000 ppm DMSO stock solutions into 24-well plates and mixed with agar. Lettuce seeds were placed onto the agar and the multi well plate was closed by another plate which contained also agar. After 7 days the compound was absorbed by the roots and the lettuce grew into the lid plate. The lettuce leaves were then cut off into the lid plate. Spodoptera eggs were pipetted through a plastic stencil onto a humid gel blotting paper and the lid plate was closed with it. The samples were assessed for mortality, anti-feedant effect and growth inhibition in comparison to untreated samples 6 days after infestation.

Consider `CCS(=O)(=O)c1ccc(-c2cc(F)cc(F)c2)nc1-n1cc2cnc(C(F)(F)F)cc2n1` [Compound P1, 2-[6-(3,5-difluorophenyl)-3-ethylsulfonyl-2-pyridyl]-6-(trifluoromethyl)pyrazolo[4,3-c]pyridine], for which the melting point – broadly, the temperature, or range, at which the solid turns liquid – fell in the range of 207 to 209 °C.
As to `CCS(=O)(=O)c1ccc(-n2cncn2)nc1-n1nc2cc(C(F)(F)F)ncc2c1Cl` [Compound P2, 3-chloro-2-[3-ethylsulfonyl-6-(1,2,4-triazol-1-yl)-2-pyridyl]-6-(trifluoromethyl)pyrazolo[4,3-c]pyridine], the percent control (mortality, anti-feedant effect or growth inhibition) at 200 ppm in series [1] is at least 80%. Further, the percent effect (mortality or growth inhibition) at 200 ppm in series [2] and in series [3] was at least 80% each time.
In the case of `CCS(=O)(=O)c1ccc(-n2cnc(Cl)n2)nc1-n1nc2cc(C(F)(F)F)ncc2c1Cl` [Compound P4], the percent control (mortality, anti-feedant effect or growth inhibition) at 200 ppm in series [1] was at least 80%.
With `CCS(=O)(=O)c1ccc(-n2cc(C#N)cn2)nc1-n1cc2cnc(C(F)(F)F)cc2n1` [Compound P5], in series [1], the percent control (mortality, anti-feedant effect or growth inhibition) at 200 ppm is at least 80%. The percent effect (mortality or growth inhibition) at 200 ppm in series [4], in series [2] and in series [3] was at least 80% throughout.
In turn, `CCS(=O)(=O)c1ccc(-c2cccc(F)c2)nc1-n1nc2cc(C(F)(F)F)ncc2c1Cl` [Compound P6] had a percent control (mortality, anti-feedant effect or growth inhibition) at 200 ppm in series [1] of at least 80%. Besides, in series [4], the percent effect (mortality or growth inhibition) at 200 ppm was at least 80%.
In turn, `CCS(=O)(=O)c1ccc(-c2cccc(F)c2)nc1-n1cc2cnc(C(F)(F)F)cc2n1` [Compound P7] registered a percent control (mortality, anti-feedant effect or growth inhibition) at 200 ppm in series [1] of at least 80%.
Compound `CCS(=O)(=O)c1ccc(-n2cccn2)nc1-n1cc2cnc(C(F)(F)F)cc2n1` [Compound P8] showed a percent control (mortality, anti-feedant effect or growth inhibition) at 200 ppm in series [1] of at least 80%. Also, the percent effect (mortality or growth inhibition) at 200 ppm in series [4] and in series [2] was at least 80% throughout. The mortality (commonly the percentage killed) at 200 ppm in series [5] is at least 80%.
In series [1], `CCS(=O)(=O)c1ccc(-c2cncnc2)nc1-n1cc2cnc(C(F)(F)F)cc2n1` [Compound P9] had a percent control (mortality, anti-feedant effect or growth inhibition) at 200 ppm of at least 80%. Besides, the percent effect (mortality or growth inhibition) at 200 ppm in series [4], in series [2] and in series [3] was at least 80% throughout. In addition, the mortality at 200 ppm in series [5] is at least 80%.
Turning to `CCS(=O)(=O)c1ccc(-n2cc(C#N)cn2)nc1-n1nc2cc(C(F)(F)F)ncc2c1Cl` [Compound P10, 1-[6-[3-chloro-6-(trifluoromethyl)pyrazolo[4,3-c]pyridin-2-yl]-5-ethylsulfonyl-2-pyridyl]pyrazole-4-carbonitrile], the percent control (mortality, anti-feedant effect or growth inhibition) at 200 ppm in series [1] was at least 80%. For the same compound, in series [4], the percent effect (mortality or growth inhibition) at 200 ppm is at least 80%.
In series [1], `CCS(=O)(=O)c1ccc(-c2cccnc2)nc1-n1cc2cnc(C(F)(F)F)cc2n1` [Compound P12, 2-[3-ethylsulfonyl-6-(3-pyridyl)-2-pyridyl]-6-(trifluoromethyl)pyrazolo[4,3-c]pyridine] had a percent control (mortality, anti-feedant effect or growth inhibition) at 200 ppm of at least 80%. Moreover, the percent effect (mortality or growth inhibition) at 200 ppm in series [4] and in series [2] was at least 80% throughout.
The compound `CCS(=O)(=O)c1ccc(NC)nc1-n1nc2cc(C(F)(F)F)ncc2c1Cl` [Compound P13] returned a melting point of 257 to 259 °C.
Regarding `CCS(=O)(=O)c1ccc(N)nc1-n1nc2cc(C(F)(F)F)ncc2c1Cl` [Compound P14, 6-[3-chloro-6-(trifluoromethyl)pyrazolo[4,3-c]pyridin-2-yl]-5-ethylsulfonyl-pyridin-2-amine], the mortality at 200 ppm in series [5] is at least 80%.
Regarding `CCS(=O)(=O)c1ccc(-c2cccnc2)nc1-n1nc2cc(C(F)(F)F)ncc2c1Cl` [Compound P17, 3-chloro-2-[3-ethylsulfonyl-6-(3-pyridyl)-2-pyridyl]-6-(trifluoromethyl)pyrazolo[4,3-c]pyridine], the melting point was in the range of 194 to 196 °C.
`CCS(=O)(=O)c1cc(Cl)c(NC)nc1-n1cc2cnc(C(F)(F)F)cc2n1` [Compound P18] had a percent control (mortality, anti-feedant effect or growth inhibition) at 200 ppm in series [1] of at least 80%. In addition, the percent effect (mortality or growth inhibition) at 200 ppm in series [4], in series [2] and in series [3] was at least 80% in each case. The mortality at 200 ppm in series [5] is at least 80%.
In turn, `CCS(=O)(=O)c1ccc(-n2ccc(C#N)n2)nc1-n1cc2cnc(C(F)(F)F)cc2n1` [Compound P20] yielded a percent control (mortality, anti-feedant effect or growth inhibition) at 200 ppm in series [1] of at least 80%. The percent effect (mortality or growth inhibition) at 200 ppm in series [4], in series [2] and in series [3] was at least 80% each time.
In turn, `CCS(=O)(=O)c1ccc(-n2ccc(C#N)n2)nc1-n1nc2cc(C(F)(F)F)ncc2c1Cl` [Compound P21] came in with a melting point of 264 to 266 °C.
In the case of `CCS(=O)(=O)c1ccc(-n2cncn2)nc1-n1nc2cc(C(F)(F)F)ncc2c1C` [Compound P22, 2-[3-ethylsulfonyl-6-(1,2,4-triazol-1-yl)-2-pyridyl]-3-methyl-6-(trifluoromethyl)pyrazolo[4,3-c]pyridine], the percent control (mortality, anti-feedant effect or growth inhibition) at 200 ppm in series [1] is at least 80%. The percent effect (mortality, anti-feeding or growth inhibition) at 12.5 ppm in series [6] is at least 80%. Further, the percent effect (mortality or growth inhibition) at 200 ppm in series [4] and in series [2] was at least 80% in each case. The compound further returned a mortality at 200 ppm in series [5] of at least 80%.
Take `CCOc1nc(-n2cc3cnc(C(F)(F)F)cc3n2)c(S(=O)(=O)CC)cc1Cl` [Compound P23]: the percent control (mortality, anti-feedant effect or growth inhibition) at 200 ppm in series [1] was at least 80%. Further, the percent effect (mortality or growth inhibition) at 200 ppm in series [4], in series [2] and in series [3] was at least 80% each time. Besides, in series [5], the mortality at 200 ppm is at least 80%.
Compound `CCS(=O)(=O)c1cc(Cl)c(OC)nc1-n1cc2cnc(C(F)(F)F)cc2n1` [Compound P24, 2-(5-chloro-3-ethylsulfonyl-6-methoxy-2-pyridyl)-6-(trifluoromethyl)pyrazolo[4,3-c]pyridine] yielded a percent control (mortality, anti-feedant effect or growth inhibition) at 200 ppm in series [1] of at least 80%. The percent effect (mortality or growth inhibition) at 200 ppm in series [4], in series [2] and in series [3] was at least 80% each time. Besides, the mortality at 200 ppm in series [5] was at least 80%.
`CCS(=O)(=O)c1ccc(-n2cnc(SC)n2)nc1-n1nc2cc(C(F)(F)F)ncc2c1Cl` [Compound P26]: the melting point lay in the range of 118 to 120 °C.
`CCS(=O)(=O)c1ccc(-n2cnc(SC)n2)nc1-n1cc2cnc(C(F)(F)F)cc2n1` [Compound P27]: the melting point was in the range of 172 to 174 °C.
On the same count and under the same terms, the result for `CCS(=O)(=O)c1ccc(-n2cnc(S(C)(=O)=O)n2)nc1-n1cc2cnc(C(F)(F)F)cc2n1` [Compound P28] reads 247 to 249 °C.
`CCS(=O)(=O)c1ccc(N(C)C)nc1-n1nc2cc(C(F)(F)F)ncc2c1Cl` [Compound P29] returned a melting point of 166 to 168 °C.
Take `CCS(=O)(=O)c1ccc(N(C)C)nc1-n1cc2cnc(C(F)(F)F)cc2n1` [Compound P30]: the melting point fell in the range of 256 to 258 °C.
`CCS(=O)(=O)c1ccc(NO)nc1-n1nc2cc(C(F)(F)F)ncc2c1Cl` [Compound P32] showed a melting point of 246 to 248 °C.
